# Patent US11542545B2, “Microfluidic measurements of the response of an organism to a drug” (priority 2014, dated 2023)
# Read-outs that look alike come from different tables or passages of the source.
# Key:
# [1] = test system: resistant E. coli isolate; assay: 23S rDNA copy number by digital PCR on a SlipChip after ciprofloxacin exposure, resistant isolate; type: cell-based; conditions: Example 4 resistant isolate, 2.5 ug/mL ciprofloxacin
# [2] = test system: ciprofloxacin-susceptible E. coli isolate from a patient with a urinary tract infection; conditions: 0.75 ug/mL ciprofloxacin, 30 minutes, 1:1 BHI:urine, qPCR, 3 replicates
# [3] = test system: ciprofloxacin-susceptible E. coli isolate from a patient with a urinary tract infection; conditions: 0.75 ug/mL ciprofloxacin, 30 minutes, sample diluted 1:10, digital PCR, Poisson statistics
# [4] = test system: susceptible UTI E. coli isolate; conditions: 2.5 ug/mL ciprofloxacin, 15 minutes, BHI
# resistant UTI E. coli = conditions: 2.5 ug/mL ciprofloxacin, 15 minutes, BHI
# E. coli isolates = conditions: RNA target; cited from earlier work
# [5] = test system: E. coli isolates from patients with urinary tract infections and susceptible to various antibiotics; conditions: 1:1 BHI:urine, qPCR
# E. coli = conditions: after treatment with trimethoprim, susceptible cells, vs baseline level of zero (Slager 2014); cited from earlier work
compound,measurement,setting,value
O=C(O)c1cn(C2CC2)c2cc(N3CCNCC3)c(F)cc2c1=O [ciprofloxacin],change in rDNA copy number,[1],No significant change
same,"Cq of rDNA, treated sample",[2],22.84+/−0.53
same,"23S rDNA concentration, treated sample",[3],"148,031+/−7,103 copies/mL"
same,23S CT Treated,[4],20.19/20.84
same,FeoB CT Treated,[4],23.3/23.71
same,dnaAinh CT Treated,[4],23.93/23.97
same,recA CT Treated,[4],24.81/24.65
same,23S CT Treated,resistant UTI E. coli,20.22/20.13
same,FeoB CT Treated,resistant UTI E. coli,23.19/23.1
same,dnaAinh CT Treated,resistant UTI E. coli,23.68/23.89
same,recA CT Treated,resistant UTI E. coli,27.19/27.05
same,"Response to Ciprofloxacin: EcHS_A0999 dmsA anaerobic dimethyl sulfoxide reductase, A subunit",E. coli isolates,Same or Downregulated
same,Response to Ciprofloxacin: EcHS_A1247 pepT peptidase T,E. coli isolates,Same or Downregulated
same,Response to Ciprofloxacin: EcHS_A1333 narK nitrite extrusion protein 1,E. coli isolates,Same or Downregulated
same,"Response to Ciprofloxacin: EcHS_A1334 narG nitrate reductase, alpha subunit",E. coli isolates,Same or Downregulated
same,"Response to Ciprofloxacin: EcHS_A1335 narH nitrate reductase, beta subunit",E. coli isolates,Same or Downregulated
same,"Response to Ciprofloxacin: EcHS_A1557 fdnG formate dehydrogenase, nitrate inducible, alpha subunit, selenocysteine-containing",E. coli isolates,Same or Downregulated
same,Response to Ciprofloxacin: EcHS_A1755 hypothetical protein,E. coli isolates,Same or Downregulated
same,Response to Ciprofloxacin: EcHS_A1940 DNA damage-inducible protein YebG,E. coli isolates,Significantly Upregulated
same,Response to Ciprofloxacin: EcHS_A1987 flhC transcriptional activator FlhC,E. coli isolates,Same or Downregulated
same,Response to Ciprofloxacin: EcHS_A1988 flhD transcriptional activator FlhD,E. coli isolates,Same or Downregulated
same,Response to Ciprofloxacin: EcHS_A2346 napF ferredoxin-type protein,E. coli isolates,Same or Downregulated
same,Response to Ciprofloxacin: EcHS_A2835 recA recombinase A,E. coli isolates,Significantly Upregulated
same,Response to Ciprofloxacin: EcHS_A4283 lexA LexA repressor,E. coli isolates,Significantly Upregulated
same,Response to Ciprofloxacin: EcHS_A4284 dinF DNA-damage-inducible SOS response protein,E. coli isolates,Significantly Upregulated
same,Response to Ciprofloxacin: EcHS_A4300 uvrA excinuclease ABC subunit A,E. coli isolates,Significantly Upregulated
O=C1CN(/N=C/c2ccc([N+](=O)[O-])o2)C(=O)N1 [nitrofurantoin],fold change in rDNA copy number,"[5]; nitrofurantoin treatment, 15 minutes",1.62 fold
CN(C)[C@@H]1C(O)=C(C(N)=O)C(=O)[C@@]2(O)C(O)=C3C(=O)c4c(O)cccc4[C@@](C)(O)[C@H]3C[C@@H]12 [tetracycline],fold change in rDNA copy number,"[5]; tetracycline treatment, 30 minutes",1.55 fold
COc1cc(Cc2cnc(N)nc2N)cc(OC)c1OC [trimethoprim],relative DNA copy number as compared to the distance from the origin of replication (oriC),E. coli,peaks close to the origin of replication
trimethoprim/sulfamethoxazole,fold change in rDNA copy number,"[5]; trimethoprim/sulfamethoxazole treatment, 45 minutes",1.35 fold
